Test results taken from patent US7799830B2, “Cinnamic acid dimers, their preparation and the use thereof for treating neurodegenerative disease” (Korea Institute of Science and Technology, priority 2002, dated 2010).

Assays:
Spraque-Dawley rats = assay: oral toxicity test of cinnamic acid dimers; type: in vivo
Description: Twenty female and twenty male Spraque-Dawley rats aged 4 weeks were divided into four groups including 5 female and 5 male rats, after being raised in a vivarium of a temperature of 22±3° C., a relative humidity of 50±10%, an illumination of 150-300 Lux for 1 week.
The cinnamic acid dimers prepared in Example 1 were dissolved in corn oil, and the rats of the 4 groups were orally administered with the solution at a dose of 300, 1,000, 3,000 and 10,000 mg/kg once. […] In addition, the rats were killed on the seventh day after administration, dissected, and internal organs were examined with the unaided eye. Daily weight change was measured from the administration day and thus the weight decrease of animals attributed to cinnamic acid dimers was observed.

[1] = test system: mice administered with beta-amyloid; assay: passive avoidance test (learning and memory-retention ability of mice); type: in vivo; conditions: mice given compound and beta-amyloid (1-42); 24 h after training; maximum 300 seconds; average of 10 mice; FIG. 1
Description: Four groups of 10 mice aged 4-5 weeks, weighing 20-25 g were used in the experiment. Each sample was administered with 1% DMSO and 1% CMC using a Sonde once a day (samples: A—physiological salin solution; B—beta-amyloid; C—cinnamic acid dimer (example 1) and beta-amyloid). After injecting […] of each sample to the cerebral ventricle 3 consecutive days, passive avoidance test was conducted on the first and second day for following the last injection. All data was attained by the average of 10 mice.
In order to examine the learning and memory-retention ability of a mouse, a passive avoidance test was carried out in accordance with the method described in Song et al, J. Neurochem., 1998, 71, 875. A passive avoidance chamber equipped with a light room and a dark room was prepared, wherein the floor of the dark room was designed to deliver an electrical shock to the test animal. First, a mouse was put in the light room and, upon entering the dark room, an electrical shock of 0.25 mA was given to the animal for 1 second. […] Then, the time it took for the mouse to enter the dark room was measured as a passive avoidance time. The maximum restriction time was set at 300 seconds, i.e., in cases where the mouse took more than 300 seconds to enter the dark room, the passive avoidance time was determined to be 300 seconds.

COc1cc(C=CC(=O)O)ccc1OCCOc1ccc(C=CC(=O)O)cc1OC [Example 1, 1,2-di[2-methoxy-4-(2-carboxylvinyl)]phenoxyethane]
pathological changes of internal organs at dissection (Spraque-Dawley rats; group administered with 5,000 mg/kg or less, seventh day after administration, unaided eye): No pathological changes were seen with the naked eye
LD50 (Spraque-Dawley rats; single oral dose in corn oil, observed for 7 days, both males and females): 5,000 mg/kg
step-through latency (passive avoidance time) compared with mice administered with beta-amyloid only [1]: significantly higher
